Data on three molecules can be found in patent US6713633B1, “Compounds capable of cleaving double-stranded DNA and method of utilization of the same” (Japan Science and Technology Corporation, priority 1999, dated 2004).

The subject of one test is HeLaS3 cells. Put plainly: Growth Inhibitory Test on HeLaS3 Cells. It counts as cell-based. To be noted: Homo sapiens, HeLa S3, 72 hours incubation, cell counts. The method, then: Cytotoxic activity of the compound of the present invention based on the properties described hereinbefore was examined. Cytotoxic activities of PyPyLDu86 and ImPyLDu86 of the present invention and known anticancer agent duocarmycin on HeLaS3 cells (uterocervical squamous cell carcinoma cells) were tested.
Suspension 0.75 ml of HeLaS3 cells, 2.67×10^4 cells/ml, in MEM medium containing 10% fetal bovine serum and 2 mM glutamine, was dispensed into each well in 24 cell culture plate. After incubation in the CO2-incubator at 37° C. for overnight, 0.25 ml portions of each test compound shown in Table 1, which was appropriately diluted with medium, was added into each well.
After cells were incubated for 72 hours in the CO2-incubator, the culture supernatant was removed, and cells were dispersed using trypsin-ethylenediaminetetraacetic acid (EDTA) and collected. Cell counts were counted by cell counter, and cell counts without treatment and cell counts treated with known concentration of test compound were compared to calculate the concentration of test compound which inhibits 50% of cell growth (IC50).

Test [1] deals with 5′-end texas red-modified 450 bp DNA fragments pUC18 F780*-1229 and pUC18 R1459*-1908. Description: Alkylation of 450 bp DNA fragments (thermally induced strand cleavage, high-resolution gel electrophoresis). It counts as biochemical. An excerpt:
Reactivities of the thus synthesized PyPyLDu86 and ImPyLDu86 with DNA were investigated.
The left electrophoresis pattern is a result of the upper strand of the double-strand DNA, and the right electrophoresis pattern is a result of the lower strand of the double-strand DNA. […] No compounds have been known to occur such the cleavage, and in this sense, the compound of the present invention can be said as an artificial restriction enzyme.
(1) Preparation of 5′-texas red-end-modified 450 bp DNA fragment
The 5′-end texas red-modified 450 bp DNA fragments pUC18 F780*-1229 and pUC18 R1459*-1908 (these are complementary) were prepared by the PCR method using 5′-end texas red-modified 18mers as primers and purified by filtration using Suprec-02. The concentration was determined by ethidium bromide staining. The asterisk (*) indicates texas red modification site, and numerals indicates nucleotide numbering from the replication origin.
(2) High-resolution gel electrophoresis
A standard reaction mixture containing 5′-end texas red-labeled DNA fragment 60 nM, DMF 5% (v/v) and various concentrations of drugs in total 10 μl of sodium phosphate buffer (pH 7.0) 12.5 mM was added into microcentrifugal tube (Eppendorf tube) and allowed to stand at room temperature for overnight. Calf thymus DNA (5 mM, 1 μl) was added thereto and heated at 90° C. for 5 minutes. DNA was collected by ethanol precipitation. […]

For the molecule `COC(=O)c1cc2c([nH]1)C(=O)C=C1N(C(=O)c3cc4cc(OC)c(OC)c(OC)c4[nH]3)C[C@H]3C[C@]123` [Duocaraycin, duocarmycin, reference compound], in the test on HeLaS3 cells, half-maximal inhibition (IC50) required 4.7 nM. Consider `COC(=O)c1c(C)[nH]c2c1C13CC1CN(C(=O)/C=C/c1cc(NC(=O)c4nc(NC(C)=O)cn4C)cn1C)C3=CC2=O` (centres unmarked) [ImPyLDu86], for which the efficiency of cleavage in test [1] (double-strand DNA cleavage, calculated by an amount of used ImPyLDu86) is listed as roughly 70%. Further, the “cleavage of the double-strand DNA (sites)” value in test [1] (upper and lower strand, thermally induced strand cleavage, from the lower concentration) was “mainly cleaved at the site 1 and the site 2 of the two strands”. The IC50 (usually the concentration at which inhibition is half-maximal) with HeLaS3 cells worked out at 0.7 nM. With `COC(=O)c1c(C)[nH]c2c1C13CC1CN(C(=O)/C=C/c1cc(NC(=O)c4cc(NC(C)=O)cn4C)cn1C)C3=CC2=O` (centres unmarked) [PyPyLDu86], the half-maximal inhibitory concentration (IC50) with HeLaS3 cells amounted to 1.5 nM.
